Laboratory results: patent US10196382B2, “bis-Pyridazine compounds and their use in treating cancer” (AstraZeneca AB, priority 2015, dated 2019)

Tests used:
NCI-H1703 cells = test: GLS Cell Proliferation Assay (NCI-H1703); format: cell-based; settings: Homo sapiens, 120 h; NCI-H1703 cells, 5 days incubation, Sytox Green; read-out: Assay c) GLS Cell Proliferation Assay
Text: (§1) The following assays were used to measure the effects of the compounds of the present invention: a) GLS Enzyme Potency Assay; b) GLS Cell Potency Assay; c) GLS Cell Proliferation Assay. During the description of the assays, generally: • i. The following abbreviations have been used: CO2=Carbon dioxide; DMEM=Dulbecco's Modified Eagle Medium; DMSO=Dimethyl sulphoxide; EDTA=Ethylenediaminetetraacetic acid; EGTA=Ethylene glycol tetraacetic acid; FCS=Foetal calf serum; h=Hour(s); NBS=Non-binding surface; SDS=Sodium dodecyl sulphate; TRIS=Tris(Hydroxymethyl)aminomethane. • ii. IC50 values were calculated using a smart fitting model in Genedata. […] Assay a): GLS Enzyme Potency Assay
The ability of compounds to inhibit cell growth was measured using a 384 well plate NCI-H1703 cell proliferation assay. […] DMSO concentration was maintained at 0.3% by back filling with DMSO solution. Plates were incubated for 5 days at 37° C., 5% CO2, Sytox Green and Saponin added to final concentration of 2 μM and 0.25% respectively and incubated for 6 h prior to analysis. […] IC50 values were calculated by curve fitting to max inhibition of day zero growth using GeneData software analysis.

GLS1 = GLS1 (Homo sapiens (Human), UniProt O94925); test: GLS Enzyme Potency Assay (Glutamate Oxidase/AmplexRed coupled assay); format: biochemical; settings: 6His tagged GLS protein (amino acids 63-669), 60 minutes reaction with glutamine
Text: The following assays were used to measure the effects of the compounds of the present invention: a) GLS Enzyme Potency Assay; b) GLS Cell Potency Assay; c) GLS Cell Proliferation Assay. During the description of the assays, generally: • i. The following abbreviations have been used: CO2=Carbon dioxide; DMEM=Dulbecco's Modified Eagle Medium; DMSO=Dimethyl sulphoxide; EDTA=Ethylenediaminetetraacetic acid; EGTA=Ethylene glycol tetraacetic acid; FCS=Foetal calf serum; h=Hour(s); NBS=Non-binding surface; SDS=Sodium dodecyl sulphate; TRIS=Tris(Hydroxymethyl)aminomethane. • ii. IC50 values were calculated using a smart fitting model in Genedata. The IC50 value was the concentration of test compound that inhibited 50% of biological activity. Assay a): GLS Enzyme Potency Assay
A Glutamate Oxidase/AmplexRed coupled assay was used to measure the ability of compounds to bind to and inhibit the activity of GLS1 in vitro. 6His tagged GLS protein (amino acids 63-669) expressed in E. Coli was purified and stored at −80° C. in aliquots. GLS1 was diluted to 2×working concentration and incubated at r.t. to allow the tetrameric/dimeric forms to reach steady state. Assay measurements were performed in buffer comprising 50 mM TRIS pH 7.8, 100 mM NaPO4, pH 7.8, 0.001% v/v Tween20. Purified recombinant GLS1 protein was diluted in assay buffer to 12 nM and pre-incubated at r.t. for 30 minutes. Test compounds were prepared by dilution in 100% DMSO to give the correct dose range for 12 point concentration response and an appropriate volume (2.5-60 nl) dispensed into 384 well micro assay plates (Greiner product code 784900) using a Labcyte Echo 555 acoustic dispenser. DMSO concentration was maintained at 2% by back filling with DMSO solution. 3 μL of diluted GLS1 protein (12 nM) was then dispensed into each well using a BioRaptr automated dispenser (Beckman-Coulter) and incubated for 15 minutes at r.t. 3 μl of 100 mM glutamine diluted in assay buffer was then added and the reaction incubated at r.t. for 60 minutes. The reaction was then stopped by addition of 45 μM 6-(2-bromoethynyl)-2,3-dimethyl-quinazolin-4-one, 75 μM Amplex Red, 0.375 units/mL Horseradish Peroxidase, 0.12 units/mL Glutamate Oxidase in 100 mM TRIS pH7.5. After 30 minutes at room temp in the dark, plates were read on a Perkin Elmer EnVision using 535/590 nm optic filters and raw data analysed using Genedata to generate IC50 values. An artefact version of the assay where the 6His tagged GLS protein and glutamine were replaced with assay buffer was also used to rule out non specific effects on the assay components.

[1] = tested on: cellular GLS activity in PC3 cells; test: GLS Cell Potency Assay (PC3 coupled assay measuring cellular glutamate depletion); format: cell-based; settings: Homo sapiens, PC-3; PC3 cells, 6 h incubation, cellular glutamate depletion; read-out: Assay b) GLS Cell Potency Assay IC50
Text: as §1
Compounds were assessed for their potential to inhibit cellular GLS activity by use of a PC3 coupled assay measuring cellular glutamate depletion. […] DMSO concentration was maintained at 0.3% by back filling with DMSO solution. PC3 cells were grown in phenol free DMEM, 10% dialyzed FCS, 2 mM glutamine and following dispersal by trypsinisation were plated at 5.6×10^3 cells per well in 40 μl of growth medium directly into the 384 well assay plates containing dispensed compound. After incubation for 6 h at 37° C., 5% CO2 growth media was aspirated and cells lysed in 15 μl of buffer containing 10 mM TRIS pH7.4, 100 mM NaCl, 1 mM EDTA, 1 mM EGTA, 1 mM NaF, 20 mM Na4P2O7, 2 mM Na3VO4, 1% Triton X-100, 10% glycerol, 0.1% SDS and 0.5% deoxycholate.

Sequence of GLS1 (O94925 63-669): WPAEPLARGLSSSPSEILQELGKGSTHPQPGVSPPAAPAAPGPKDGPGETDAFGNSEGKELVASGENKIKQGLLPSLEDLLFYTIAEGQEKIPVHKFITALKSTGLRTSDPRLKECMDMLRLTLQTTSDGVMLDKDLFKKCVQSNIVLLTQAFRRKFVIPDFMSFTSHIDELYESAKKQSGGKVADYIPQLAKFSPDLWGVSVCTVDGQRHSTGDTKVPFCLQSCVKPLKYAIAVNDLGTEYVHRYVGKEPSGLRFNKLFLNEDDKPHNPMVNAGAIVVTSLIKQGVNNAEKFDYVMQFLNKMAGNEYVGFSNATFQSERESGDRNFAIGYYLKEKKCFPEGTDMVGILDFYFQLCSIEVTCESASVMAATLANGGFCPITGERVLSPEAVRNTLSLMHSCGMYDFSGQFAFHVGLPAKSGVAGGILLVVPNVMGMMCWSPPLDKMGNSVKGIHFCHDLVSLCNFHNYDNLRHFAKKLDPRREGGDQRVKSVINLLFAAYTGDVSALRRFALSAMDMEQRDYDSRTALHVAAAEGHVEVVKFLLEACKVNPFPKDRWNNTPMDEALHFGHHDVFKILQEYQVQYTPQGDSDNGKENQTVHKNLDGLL

Compound | IC50 (GLS1) [µM] | IC50 [1] [µM] | IC50 (NCI-H1703 cells) [µM]
COc1cccc([C@H](OC)C(=O)Nc2ccc(N3CC[C@@H](Nc4cccnn4)C3)nn2)c1 [Example 3, (2S)-2-Methoxy-2-(3-methoxyphenyl)-N-[6-[(3R)-3-(pyridazin-3-ylamino)pyrrolidin-1-yl]pyridazin-3-yl]acetamide] | 0.0298 | 0.001 | 0.003
O=C(Cc1ccccc1C(F)(F)F)Nc1ccc(N2CC[C@@H](Nc3cccnn3)C2)nn1 [Example 5, N-[6-[(3R)-3-(Pyridazin-3-ylamino)pyrrolidin-1-yl]pyridazin-3-yl]-2-[2-(trifluoromethyl)phenyl]acetamide] | 0.0306 | 0.001 | 0.003
COc1ccccc1CC(=O)Nc1ccc(N2CC[C@@H](Nc3cccnn3)C2)nn1 [Example 4, 2-(2-Methoxyphenyl)-N-[6-[(3R)-3-(pyridazin-3-ylamino)pyrrolidin-1-yl]pyridazin-3-yl]acetamide] | 0.0309 | 0.007 | 0.043

The remaining molecules from weak to strong by IC50 (GLS1), led by results:

IC50 (GLS1) [µM] | IC50 [1] [µM] | Compound | IC50 (NCI-H1703 cells) [µM]
0.0957 | 0.001 | CO[C@H](C(=O)Nc1ccc(N2CC[C@@H](Nc3cccnn3)C2)nn1)c1cccc(OC(F)(F)F)c1 [Example 2, (2S)-2-[3-(Trifluoromethoxy)phenyl]-2-methoxy-N-[6-[(3R)-3-(pyridazin-3-ylamino)pyrrolidin-1-yl]pyridazin-3-yl]acetamide] | 0.011
0.0252 | 0.001 | O=C(Cc1ccccc1OC(F)(F)F)Nc1ccc(N2CC[C@@H](Nc3cccnn3)C2)nn1 [Example 6, N-[6-[(3R)-3-(Pyridazin-3-ylamino)pyrrolidin-1-yl]pyridazin-3-yl]-2-[2-(trifluoromethoxy)phenyl]acetamide] | 0.012
0.0247 | 0.001 | CO[C@H](C(=O)Nc1ccc(N2CC[C@@H](Nc3cccnn3)C2)nn1)c1cccc(OC(F)F)c1 [Example 1, (2S)-2-[3-(Difluoromethoxy)phenyl]-2-methoxy-N-[6-[(3R)-3-(pyridazin-3-ylamino)pyrrolidin-1-yl]pyridazin-3-yl]acetamide] | 0.009
